Numbered stars: 1 amine (or outer) side, 2 acyl side, 3 side chain; on linkers, the order of the positions; unused ones are H or OH. Bridge positions count the residues as written; N and C are the ends. Square brackets hold non-standard residues; d marks the D form. Peptide text beside a SMILES is read from it. X1 = CC[C@H](C)[C@@H](N[*:1])[C@@H](O)CC(=O)O[C@H](C(=O)[C@H](C)C(=O)[*:2])C(C)C; NMeY = CN[C@@H](Cc1ccc(O)cc1)C(=O)O; dNMeL = CN[C@H](CC(C)C)C(=O)O
What was measured:
L1210 = type: cell-based; conditions: for L1210, IC90: L1210 cells, cytotoxicity
DNA and RNA viruses = conditions: against DNA and RNA viruses; cited from earlier work
[1] = molecular target: elongation factor-1α (EF-1α) (Homo sapiens, UniProt P68104); conditions: GEP-dependent manner; cited from earlier work
[2] = in vitro; cited from earlier work
Nb2 node lymphoma cells = conditions: cited from earlier work

Sequence of elongation factor-1α (EF-1α) (P68104 whole entry): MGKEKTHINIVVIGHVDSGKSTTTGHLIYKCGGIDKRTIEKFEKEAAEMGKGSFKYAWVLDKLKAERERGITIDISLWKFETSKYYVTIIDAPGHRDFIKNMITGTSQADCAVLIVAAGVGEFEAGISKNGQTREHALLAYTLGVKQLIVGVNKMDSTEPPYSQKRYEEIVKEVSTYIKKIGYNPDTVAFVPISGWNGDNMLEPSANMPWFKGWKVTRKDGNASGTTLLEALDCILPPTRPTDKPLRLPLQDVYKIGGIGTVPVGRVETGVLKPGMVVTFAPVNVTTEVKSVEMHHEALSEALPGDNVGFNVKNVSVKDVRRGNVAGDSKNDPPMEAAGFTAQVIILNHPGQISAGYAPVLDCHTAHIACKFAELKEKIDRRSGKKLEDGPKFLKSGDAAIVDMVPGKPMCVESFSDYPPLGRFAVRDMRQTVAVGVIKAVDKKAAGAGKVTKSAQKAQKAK

Compound	L1210, IC90 (L1210) [ng/mL]	other results
L-glutaminyl-L-alaninyl-didemnin A [Glutaminyl-AlaDA]	25	–
L-glutaminyl-L-[alaninyl^9 ]didemnin B [Gln-[Ala^9]DB]	200	–
N-Benzyloxycarbonyl-L-alaninyl-didemnin A [Cbz-Alaninyl DA]	3	–
Pro-Didemnin A [Prolyl DA]	12	–
CC[C@H](C)[C@H]1NC(=O)[C@@H](NC(=O)[C@@H](CC(C)C)NC)[C@@H](C)OC(=O)[C@H](Cc2ccc(OC)cc2)N(C)C(=O)[C@@H]2CCCN2C(=O)[C@H](CC(C)C)NC(=O)[C@@H](C)C(=O)[C@H](C(C)C)OC(=O)C[C@@H]1O [Didemnin A] (H-[dNMeL]T[X1]LP[NMeY](Me); ester 2-C)	75	antiviral activity (DNA and RNA viruses): exhibit antiviral activity; binding to EF-1α [1]: binds elongation factor-1α (EF-1α)
L-[Alaninyl^9 ] didemnin B [[Ala^9]DB]	–	relative bioactivity among the didemnins synthesized (L1210; preliminary assay results): the most active of the didemnins synthesized thus far
N-Benzyloxycarbonyl-L-glutaminyl-didemnin A [Cbz-Glutaminyl DA]	8	–
CC[C@H](C)[C@H]1NC(=O)[C@@H](NC(=O)[C@@H](CC(C)C)N(C)C(=O)[C@@H]2CCCN2C(=O)C(C)O)[C@@H](C)OC(=O)[C@H](Cc2ccc(OC)cc2)N(C)C(=O)[C@@H]2CCCN2C(=O)[C@H](CC(C)C)NC(=O)[C@@H](C)C(=O)[C@H](C(C)C)OC(=O)C[C@@H]1O (stereo partly shown) [Didemnin B]	7	cytotoxicity relative to didemnin A [2]: approximately twenty times more cytotoxic than didemnin A; antiviral activity (DNA and RNA viruses): exhibit antiviral activity; binding to a site on Nb2 node lymphoma cells (Nb2 node lymphoma cells): binds to a site on Nb2 node lymphoma cells
L-pyroglutamyl-L-[alaninyl^9 ] didemnin B [pGlu-[Ala^9]DB]	500	–
N-Benzyloxycarbonly-L-[Alaninyl^9 ]didemnin B [Cbz-[Ala^9]DB]	2	–
L-Alaninyl-didemnin A [Alaninyl DA]	8	–
